Results reported in patent US20080293060A1, “Methods and Compositions for Identification of Hydrocarbon Response, Transport and Biosynthesis Genes” (priority 2007, published 2008).

tested on: ARE in Acinetobacter WH405; assay type: cell-based, Acinetobacter strain WH405 (derivative of strain ADP1); conditions: hydrocarbon at 5 and 50 mM, WH405 in LB, 37° C. overnight
Experimental: Acinetobacter strain WH405, an ARE::lacZ derivative of strain ADP1 (Ratajczak et al 1998), was scraped from an overnight plate into LB and diluted to OD600 0.07 (the cells can also be from an overnight culture, as long as cells are diluted in fresh LB). Alkane and alkene induction of the ARE was tested by adding a number of alkenes at 5 and 50 mM to culture tubes, followed by addition of the diluted WH405 solution into tubes (5 mL). Tubes were incubated in a 37° C. shaker overnight. The β-galactosidase activity assay developed by Miller was used to determine the level of induction by the different hydrocarbon from the overnight cultures.

Row | Structure (SMILES) | induction of the ARE (β-galactosidase activity, Miller assay)
1 | C=CCCCCCCCCCCCCCCCCCC [1-eicosene] | induced
2 | C=CCCCCCCCCCCCCCCC [1-heptadecene] | induced
3 | C=CCCCCCCCCCCCCCC [1-hexadecene] | induced
4 | C=CCCCCCCCCCCCCCCCCC [1-nonadecene] | induced
5 | C=CCCCCCCCCCCCCCCCC [1-octadecene] | induced
6 | CCCCCCCC/C=C\CCCCCCCCCCCCC [9-cis tricosene] | induced
7 | CCCCCCCC/C=C\CCCCCCCCCCC [9-cis-heneicosene] | induced
8 | CCCCCCCCCC [decane] | induced
9 | CCCCCCCCCCCCCCCC [hexadecane] | induced
10 | CCCCCC [hexane] | not
11 | CCCCCCCC [octane] | induces
